Measurements from paper PMC6751662, “Pharmacological and functional similarities of the human neuropeptide Y system in C. elegans challenges phylogenetic views on the FLP/NPR system” (Cell Communication and Signaling : CCS, 2019).

How the values were obtained:
Format in all cases: cell-based
Y4R = target: T1, Y4R (Homo sapiens, UniProt P50391); experiment: IP accumulation assay, chimeric GαΔ6qi4myr, Y4R; details: chimeric GαΔ6qi4myr co-transfected, transiently transfected HEK293 cells, mean of at least three independent experiments
T1 construct: expressed in transfected cells; host or cells: HEK293, transient
T1 sequence (P50391 whole entry): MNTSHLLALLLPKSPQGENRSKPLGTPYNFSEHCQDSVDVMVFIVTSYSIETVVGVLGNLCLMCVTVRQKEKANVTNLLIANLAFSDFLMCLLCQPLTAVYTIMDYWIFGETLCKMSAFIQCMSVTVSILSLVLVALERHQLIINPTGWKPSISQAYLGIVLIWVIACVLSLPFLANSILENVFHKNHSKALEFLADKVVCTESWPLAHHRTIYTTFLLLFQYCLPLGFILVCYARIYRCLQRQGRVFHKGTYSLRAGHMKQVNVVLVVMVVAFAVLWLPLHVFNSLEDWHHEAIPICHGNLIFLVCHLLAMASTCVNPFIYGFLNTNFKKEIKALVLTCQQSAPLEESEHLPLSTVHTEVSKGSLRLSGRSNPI
Procedure: (§1) For measuring IP accumulation, HEK293 cells grown to 70–80% confluency in 6-well plates were transiently co-transfected using Metafectene Pro (2.5 μl/μg DNA; Biontex) with plasmids containing receptor and/or mock (empty pcDNA3.1) (for endogenous Gq-coupling) using 4 μg total DNA in a ratio of 3:1 following the manufacturer’s instructions. For testing Gα16- and GαΔ6qi4myr-coupling, plasmids encoding the corresponding Gα protein were co-transfected instead of mock. Gα16 is naturally promiscuous and stimulates the phospholipase C (PLC) pathway leading to IP production, while the exchange of the C-terminal four amino acids of Gαq for the corresponding residues of Gαi1 in the chimeric GαΔ6qi4myr confers the ability to couple to Gi/o protein-preferring receptors but still stimulate PLC, thus specifically redirecting downstream cellular signaling. 16 h post transfection, the cells were seeded into white 384-well plates at a density of 20,000 cells/well. Media was removed 24 h later and the cells were incubated with the indicated concentration of peptides for 1 h in HBSS + 20 mM LiCl. IP accumulation was measured with the HTRF-based IP-One Gq kit (Cisbio) on a microplate reader (Tecan Spark).
(§2) For in vitro activation, data is presented as mean ± SEM of at least three independent experiments conducted in technical triplicate. […] For the C. elegans NPRs, we considered the strongest response elicited by any of the peptides downstream of a particular receptor as the receptor’s maximal signal. This may or may not be the biological maximum that can be reached by the ‘true’ endogenous agonist. For the human receptors, the response to the established endogenous agonist reflected the maximal signal.

PrRPR = target: T2, PrRPR (Homo sapiens, UniProt P49683); experiment: IP accumulation assay, endogenous Gαq coupling, PrRPR; details: transiently transfected HEK293 cells, mean of at least three independent experiments
T2 construct: expressed in transfected cells; host or cells: HEK293, transient
T2 sequence (P49683 1-370): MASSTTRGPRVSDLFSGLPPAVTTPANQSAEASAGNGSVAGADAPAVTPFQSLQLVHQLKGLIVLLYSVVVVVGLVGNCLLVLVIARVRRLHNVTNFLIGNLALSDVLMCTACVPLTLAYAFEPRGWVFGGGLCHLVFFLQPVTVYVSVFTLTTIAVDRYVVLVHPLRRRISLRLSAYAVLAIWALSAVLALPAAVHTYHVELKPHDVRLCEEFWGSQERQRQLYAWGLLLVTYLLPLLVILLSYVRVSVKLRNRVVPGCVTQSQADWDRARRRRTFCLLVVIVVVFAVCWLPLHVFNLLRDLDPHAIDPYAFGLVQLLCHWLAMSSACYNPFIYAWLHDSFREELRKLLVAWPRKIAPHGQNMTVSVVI
Procedure: as §1, §2

Y2R = target: T3, Y2R (Homo sapiens, UniProt P49146); experiment: IP accumulation assay, chimeric GαΔ6qi4myr, Y2R; details: chimeric GαΔ6qi4myr co-transfected, transiently transfected HEK293 cells, mean of at least three independent experiments
T3 construct: expressed in transfected cells; host or cells: HEK293, transient
T3 sequence (P49146 1-381): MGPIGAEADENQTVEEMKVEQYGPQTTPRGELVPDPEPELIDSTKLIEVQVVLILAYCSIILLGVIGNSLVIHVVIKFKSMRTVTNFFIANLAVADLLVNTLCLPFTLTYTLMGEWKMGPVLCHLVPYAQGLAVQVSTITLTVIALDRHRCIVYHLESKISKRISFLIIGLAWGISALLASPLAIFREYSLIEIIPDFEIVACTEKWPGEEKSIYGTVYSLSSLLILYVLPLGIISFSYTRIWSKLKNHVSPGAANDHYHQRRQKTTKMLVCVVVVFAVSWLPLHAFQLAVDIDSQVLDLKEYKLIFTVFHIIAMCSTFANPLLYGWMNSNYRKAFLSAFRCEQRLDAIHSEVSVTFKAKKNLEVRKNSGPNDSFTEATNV
Procedure: as §1, §2

QRFPR = target: T4, QRFPR (Homo sapiens, UniProt Q96P65); experiment: IP accumulation assay, endogenous Gαq coupling, QRFPR; details: transiently transfected HEK293 cells, mean of at least three independent experiments
T4 construct: expressed in transfected cells; host or cells: HEK293, transient
T4 sequence (Q96P65 1-431): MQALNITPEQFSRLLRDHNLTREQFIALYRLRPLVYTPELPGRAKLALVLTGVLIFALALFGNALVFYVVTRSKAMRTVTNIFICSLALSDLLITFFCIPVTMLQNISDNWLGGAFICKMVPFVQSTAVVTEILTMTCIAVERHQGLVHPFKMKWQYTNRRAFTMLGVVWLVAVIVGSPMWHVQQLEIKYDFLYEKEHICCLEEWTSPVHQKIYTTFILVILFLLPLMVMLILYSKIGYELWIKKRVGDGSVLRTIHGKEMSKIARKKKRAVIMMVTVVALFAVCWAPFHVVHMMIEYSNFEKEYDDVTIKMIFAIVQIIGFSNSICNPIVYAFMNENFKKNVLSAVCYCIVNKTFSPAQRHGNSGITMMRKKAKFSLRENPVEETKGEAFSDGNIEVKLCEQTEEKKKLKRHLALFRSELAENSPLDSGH
Procedure: as §1, §2

Substance: AGSDPNFLRF-NH2 [FLP-1-2, C. elegans FMRFamide-like peptide, C-terminally amidated, synthesized by SPPS]
- IP accumulation, x-fold of basal (mean), Y4R (Y4R; 0.1 µM peptide): 1.28 x-fold of basal
- IP accumulation, x-fold of basal (mean), Y4R (Y4R; 10 µM peptide): 1.45 x-fold of basal
- IP accumulation, x-fold of basal (mean), PrRPR# (PrRPR; 0.1 µM peptide): 1.04 x-fold of basal
- IP accumulation, x-fold of basal (mean), PrRPR# (PrRPR; 10 µM peptide): 1.27 x-fold of basal
- IP accumulation, x-fold of basal (mean), Y2R (Y2R; 0.1 µM peptide): 2.81 x-fold of basal
- IP accumulation, x-fold of basal (mean), Y2R (Y2R; 10 µM peptide): 1.41 x-fold of basal
- IP accumulation, x-fold of basal (mean), QRFPR# (QRFPR; 0.1 µM peptide): 1.07 x-fold of basal
- IP accumulation, x-fold of basal (mean), QRFPR# (QRFPR; 10 µM peptide): 0.92 x-fold of basal

Substance: APKPKFIRF-NH2 [FLP-5-1, C. elegans FMRFamide-like peptide, C-terminally amidated, synthesized by SPPS]
- IP accumulation, x-fold of basal (mean), Y4R (Y4R; 0.1 µM peptide): 1.38 x-fold of basal
- IP accumulation, x-fold of basal (mean), Y4R (Y4R; 10 µM peptide): 1.28 x-fold of basal
- IP accumulation, x-fold of basal (mean), PrRPR# (PrRPR; 0.1 µM peptide): 1.20 x-fold of basal
- IP accumulation, x-fold of basal (mean), PrRPR# (PrRPR; 10 µM peptide): 1.41 x-fold of basal
- IP accumulation, x-fold of basal (mean), Y2R (Y2R; 0.1 µM peptide): 0.88 x-fold of basal
- IP accumulation, x-fold of basal (mean), Y2R (Y2R; 10 µM peptide): 4.08 x-fold of basal
- IP accumulation, x-fold of basal (mean), QRFPR# (QRFPR; 0.1 µM peptide): 0.95 x-fold of basal
- IP accumulation, x-fold of basal (mean), QRFPR# (QRFPR; 10 µM peptide): 1.21 x-fold of basal

Substance: APLEPVYPGDNATPEQMAQYAADLRRYINMLTRPRY-NH2 [PP, human pancreatic polypeptide, reference compound]
- IP accumulation, x-fold of basal (mean), Y4R (Y4R; 0.1 µM peptide): 4.73 x-fold of basal
- IP accumulation, x-fold of basal (mean), Y4R (Y4R; 10 µM peptide): 4.61 x-fold of basal
- IP accumulation, x-fold of basal (mean), PrRPR# (PrRPR; 0.1 µM peptide): 0.99 x-fold of basal
- IP accumulation, x-fold of basal (mean), PrRPR# (PrRPR; 10 µM peptide): 1.01 x-fold of basal
- IP accumulation, x-fold of basal (mean), Y2R (Y2R; 0.1 µM peptide): 3.40 x-fold of basal
- IP accumulation, x-fold of basal (mean), Y2R (Y2R; 10 µM peptide): 12.24 x-fold of basal
- IP accumulation, x-fold of basal (mean), QRFPR# (QRFPR; 0.1 µM peptide): 0.75 x-fold of basal
- IP accumulation, x-fold of basal (mean), QRFPR# (QRFPR; 10 µM peptide): 0.75 x-fold of basal

Substance: ASPSFIRF-NH2 [FLP-4-2, C. elegans FMRFamide-like peptide, C-terminally amidated, synthesized by SPPS]
- IP accumulation, x-fold of basal (mean), Y4R (Y4R; 0.1 µM peptide): 1.45 x-fold of basal
- IP accumulation, x-fold of basal (mean), Y4R (Y4R; 10 µM peptide): 1.04 x-fold of basal
- IP accumulation, x-fold of basal (mean), PrRPR# (PrRPR; 0.1 µM peptide): 0.85 x-fold of basal
- IP accumulation, x-fold of basal (mean), PrRPR# (PrRPR; 10 µM peptide): 0.86 x-fold of basal
- IP accumulation, x-fold of basal (mean), Y2R (Y2R; 0.1 µM peptide): 0.76 x-fold of basal
- IP accumulation, x-fold of basal (mean), Y2R (Y2R; 10 µM peptide): 2.05 x-fold of basal
- IP accumulation, x-fold of basal (mean), QRFPR# (QRFPR; 0.1 µM peptide): 1.26 x-fold of basal
- IP accumulation, x-fold of basal (mean), QRFPR# (QRFPR; 10 µM peptide): 0.98 x-fold of basal

Substance: PrRP31 [reference compound]
- IP accumulation, x-fold of basal (mean), Y4R (Y4R; 0.1 µM peptide): 0.84 x-fold of basal
- IP accumulation, x-fold of basal (mean), Y4R (Y4R; 10 µM peptide): 1.10 x-fold of basal
- IP accumulation, x-fold of basal (mean), PrRPR# (PrRPR; 0.1 µM peptide): 25.49 x-fold of basal
- IP accumulation, x-fold of basal (mean), PrRPR# (PrRPR; 10 µM peptide): 25.47 x-fold of basal
- IP accumulation, x-fold of basal (mean), Y2R (Y2R; 0.1 µM peptide): 0.76 x-fold of basal
- IP accumulation, x-fold of basal (mean), Y2R (Y2R; 10 µM peptide): 5.57 x-fold of basal
- IP accumulation, x-fold of basal (mean), QRFPR# (QRFPR; 0.1 µM peptide): 0.58 x-fold of basal
- IP accumulation, x-fold of basal (mean), QRFPR# (QRFPR; 10 µM peptide): 0.59 x-fold of basal

Substance: TPDINPAWYASRGIRPVGRF-NH2 [PrRP20, human prolactin-releasing peptide, 20 residues, reference compound]
- IP accumulation, x-fold of basal (mean), Y4R (Y4R; 0.1 µM peptide): 0.80 x-fold of basal
- IP accumulation, x-fold of basal (mean), Y4R (Y4R; 10 µM peptide): 0.89 x-fold of basal
- IP accumulation, x-fold of basal (mean), PrRPR# (PrRPR; 0.1 µM peptide): 26.01 x-fold of basal
- IP accumulation, x-fold of basal (mean), PrRPR# (PrRPR; 10 µM peptide): 27.38 x-fold of basal
- IP accumulation, x-fold of basal (mean), Y2R (Y2R; 0.1 µM peptide): 0.81 x-fold of basal
- IP accumulation, x-fold of basal (mean), Y2R (Y2R; 10 µM peptide): 5.05 x-fold of basal
- IP accumulation, x-fold of basal (mean), QRFPR# (QRFPR; 0.1 µM peptide): 0.59 x-fold of basal
- IP accumulation, x-fold of basal (mean), QRFPR# (QRFPR; 10 µM peptide): 0.63 x-fold of basal
